Structures can show the parent of a compound that is named as a salt.
Tested on: not given
Test: not given
Conditions: not given

Structure (SMILES) | melting point [°C]
Cn1c(COc2ccc(Cl)c(Oc3cc(Cl)cc(C#N)c3)c2F)n[nH]c1=O (as salt: salt) [Compound I-2, 3-Chloro-5-[6-chloro-2-fluoro-3-(4-methyl-5-oxo-4,5-dihydro-1H-[1,2,4]triazol-3-ylmethoxy)-phenoxy]-benzonitrile; formate salt] | 221 to 225
Cn1c(COc2ccc(Br)c(Oc3cc(Cl)cc(C#N)c3)c2)n[nH]c1=O | 95.2 to 100.7
Cn1c(COc2ccc(Br)c(Oc3cc(C#N)cc(C(F)F)c3)c2F)n[nH]c1=O (as salt: salt) [Compound I-4, 3-[6-Bromo-2-fluoro-3-(4-methyl-5-oxo-4,5-dihydro-1H-[1,2,4]triazol-3-ylmethoxy)-phenoxy]-5-difluoromethyl-benzonitrile; trifluoro-acetic acid salt] | 199.2 to 201
Cn1c(COc2ccc(Cl)c(Oc3cc(Cl)cc(C#N)c3)c2Cl)n[nH]c1=O | 224.4 to 225.6
Cn1c(COc2ccc(Cl)cc2Oc2cc(Cl)cc(C#N)c2)n[nH]c1=O | 176 to 177
Cn1c(COc2ccc(Cl)cc2C(=O)c2cc(Cl)cc(C#N)c2)n[nH]c1=O | 210 to 213.9

The remaining lines, values ahead:

melting point [°C] | Structure (SMILES)
205.5 to 207 | Cn1c(COc2ccc(Br)c(F)c2Oc2cc(C#N)cc(C#N)c2)n[nH]c1=O
179 to 180 | CCc1ccc(OCc2n[nH]c(=O)n2C)c(F)c1Oc1cc(Cl)cc(C#N)c1
160 to 161 | CCc1ccc(OCc2n[nH]c(=O)n2C)c(Oc2cc(C#N)cc(C(F)F)c2)c1F
212.4 to 214.2 | Cn1c(CCc2ccc(Br)c(F)c2Oc2cc(Cl)cc(C#N)c2)n[nH]c1=O
193 to 194 | Cn1c(COc2ccc(Br)c(F)c2Oc2cc(C#N)cc(C(F)F)c2)n[nH]c1=O
192.5 to 193 | Cn1c(COc2ccc(Br)c(F)c2Oc2cc(Cl)cc(C#N)c2)n[nH]c1=O
184.5 to 185.3 | Cn1c(COc2ccc(Cl)c(Oc3cc(C#N)cc(C(F)F)c3)c2F)n[nH]c1=O
197.1 to 202.1 | Cn1c(COc2ccc(Br)c(F)c2Oc2cc(C#N)cc(CC(F)(F)F)c2)n[nH]c1=O
164 to 166 | CCc1cc(C#N)cc(Oc2c(OCc3n[nH]c(=O)n3C)ccc(CC)c2F)c1
166 to 168 | CCc1ccc(OCc2n[nH]c(=O)n2C)c(Oc2cc(C#N)cc(C3CC3)c2)c1F
186 to 187 | Cn1c(CCc2ccc(Br)c(Oc3cc(Cl)cc(C#N)c3)c2F)n[nH]c1=O

Tested on: HXB2-strain of HIV
Test: Antiviral assay: protection of HIV-infected MT4 cells from virus-mediated cell death (MTT)
Assay type: cell-based
Conditions: Human immunodeficiency virus 1, HXB2, MT4, 120 h, read-out: Antiviral Assay IC50
Protocol: Anti-HIV antiviral activity was assessed using an adaptation of the method of Pauwels et al. (J. Virol. Methods 1988 20:309-321). The method is based on the ability of compounds to protect HIV-infected T lymphoblastoid cells (MT4 cells) from cell-death mediated by the infection. The endpoint of the assay was calculated as the concentration of compound at which the cell viability of the culture was preserved by 50% (‘50% inhibitory concentration’, IC50). The cell viability of a culture was determined by the uptake of soluble, yellow 3-[4,5-dimethylthiazol-2-yl]-2,5-diphenyltetrazolium bromide (MTT) and its reduction to a purple insoluble formazan salt. After solubilization, spectrophotometric methods were employed to measure the amount of formazan product. […]
A fresh solution of 5 mg/mL MTT was prepared in 0.01 M phosphate buffered saline, pH 7.2 and 20 microliters added to each culture. […] When the formazan deposit was fully solubilized by further mixing, the absorbance (OD) of the cultures was measured at 540 nm and 690 nm wavelength (690 nm readings were used as blanks for artifacts between wells). The percent protection for each treated culture was then calculated from the equation: […]

Structure (SMILES) | IC50 [nM]
Cn1c(COc2ccc(Br)c(Oc3cc(C#N)cc(C(F)F)c3)c2F)n[nH]c1=O [Compound I-4, 3-[6-Bromo-2-fluoro-3-(4-methyl-5-oxo-4,5-dihydro-1H-[1,2,4]triazol-3-ylmethoxy)-phenoxy]-5-difluoromethyl-benzonitrile; trifluoro-acetic acid salt] | 0.7
Cn1c(COc2ccc(Cl)c(Oc3cc(Cl)cc(C#N)c3)c2F)n[nH]c1=O [Compound I-2, 3-Chloro-5-[6-chloro-2-fluoro-3-(4-methyl-5-oxo-4,5-dihydro-1H-[1,2,4]triazol-3-ylmethoxy)-phenoxy]-benzonitrile; formate salt] | 1.5

Reference: patent US7906540B2, “Non-nucleoside reverse transcriptase inhibitors” (Roche Palo Alto LLC, priority 2007, dated 2011)
